A word on the MIC: it is the least concentration at which growth counts as inhibited. A word on the IC50: it is the concentration that inhibits the measured activity by half. What is called inhibition is the percentage by which the read-out fell short of the control. Read a low inhibition as little suppression. As usually defined, the fraction unbound is the share of the substance not bound to proteins or other matrix. A word on the logD: it is the decadic logarithm of the distribution of all forms, ionised or not, between an organic phase and buffer at a given pH.

SMILES strings stand for the structures. ≈ marks a conversion by molar mass, not a printed value. Where only a bound is given, the exact number is not on record here.

Data on 4 compounds can be found in ChEMBL document CHEMBL5143607, “Discovery and structure-activity relationships of a novel oxazolidinone class of bacterial type II topoisomerase inhibitors” (Bioorg Med Chem Lett, 2022).

Chain of Voltage-gated inwardly rectifying potassium channel KCNH2 (Q12809 whole entry): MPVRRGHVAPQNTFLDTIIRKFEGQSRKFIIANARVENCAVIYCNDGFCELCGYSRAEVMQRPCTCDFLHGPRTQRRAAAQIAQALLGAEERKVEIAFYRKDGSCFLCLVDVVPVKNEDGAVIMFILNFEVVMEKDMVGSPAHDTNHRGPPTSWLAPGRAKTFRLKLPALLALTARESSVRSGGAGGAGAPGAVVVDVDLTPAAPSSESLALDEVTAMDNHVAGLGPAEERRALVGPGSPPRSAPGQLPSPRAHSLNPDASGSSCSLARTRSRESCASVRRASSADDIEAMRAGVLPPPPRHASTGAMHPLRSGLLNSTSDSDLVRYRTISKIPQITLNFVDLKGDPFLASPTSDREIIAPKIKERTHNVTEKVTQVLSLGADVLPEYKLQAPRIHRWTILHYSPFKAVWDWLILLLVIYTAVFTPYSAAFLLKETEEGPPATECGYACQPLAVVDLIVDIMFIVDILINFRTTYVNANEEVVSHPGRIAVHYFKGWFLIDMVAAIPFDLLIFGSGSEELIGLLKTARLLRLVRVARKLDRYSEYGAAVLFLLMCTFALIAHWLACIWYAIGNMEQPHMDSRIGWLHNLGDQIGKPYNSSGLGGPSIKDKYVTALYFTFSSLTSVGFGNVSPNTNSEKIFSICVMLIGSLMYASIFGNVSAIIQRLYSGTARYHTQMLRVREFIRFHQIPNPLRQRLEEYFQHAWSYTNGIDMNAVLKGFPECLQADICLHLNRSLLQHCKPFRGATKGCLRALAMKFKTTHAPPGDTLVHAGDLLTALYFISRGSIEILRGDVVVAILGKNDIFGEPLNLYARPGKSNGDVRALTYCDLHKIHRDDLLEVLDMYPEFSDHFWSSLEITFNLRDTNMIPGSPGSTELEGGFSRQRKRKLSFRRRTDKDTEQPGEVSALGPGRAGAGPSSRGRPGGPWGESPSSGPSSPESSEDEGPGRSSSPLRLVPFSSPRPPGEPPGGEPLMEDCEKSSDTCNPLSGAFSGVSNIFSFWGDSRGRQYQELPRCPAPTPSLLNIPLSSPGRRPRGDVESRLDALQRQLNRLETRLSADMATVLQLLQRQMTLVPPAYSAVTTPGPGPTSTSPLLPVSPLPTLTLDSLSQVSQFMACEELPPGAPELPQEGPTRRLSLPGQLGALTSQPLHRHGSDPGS
Chain of hERG (KCNH2) (Q12809 whole entry): as above

The subject of one data set is Pseudomonas aeruginosa. The data set is described as follows: Antibacterial activity against Pseudomonas aeruginosa ATCC 27853 assessed as bacterial growth inhibition by CLSI protocol based assay. Type of data set: functional.
Conditions: not given
For `N#Cc1cnc2ccc(=O)n(CCN[C@H]3CC[C@H]4[C@H](C3)OC(=O)N4c3ccc4c(n3)NC(=O)CS4)c2c1`, the MIC stood at 2 µg/mL (≈ 3.86 µM).

`O=C1COc2ccc(N3C(=O)O[C@H]4C[C@@H](NCCCn5c(=O)cnc6ccc(F)cc65)CC[C@@H]43)nc2N1`: the MIC came to 1 µg/mL (≈ 1.97 µM).

On to `N#Cc1cnc2ccc(=O)n(CCN[C@H]3CC[C@H]4[C@H](C3)OC(=O)N4c3ccc4c(n3)NC(=O)CO4)c2c1`, for which the MIC turned out to be 2 µg/mL (≈ 3.99 µM).

With `COc1ccc2ccc(=O)n(CCN[C@H]3CC[C@H]4[C@H](C3)OC(=O)N4c3ccc4c(n3)NC(=O)CO4)c2c1`, the minimal inhibitory concentration (MIC) was 4 µg/mL (≈ 7.91 µM).

Tested on in the next data set: not listed separately
The experiment in a line: Cytotoxicity against human HepG2 cells assessed as reduction in cell viability for 24 hrs by Celltiter-Glo assay. Type of data set: toxicity, cell-based.
Conditions: not given
Regarding `N#Cc1cnc2ccc(=O)n(CCN[C@H]3CC[C@H]4[C@H](C3)OC(=O)N4c3ccc4c(n3)NC(=O)CS4)c2c1`, the IC50 at 24 h was > 128 µg/mL.

With `O=C1COc2ccc(N3C(=O)O[C@H]4C[C@@H](NCCCn5c(=O)cnc6ccc(F)cc65)CC[C@@H]43)nc2N1`, the IC50 at 24 h was > 128 µg/mL.

Regarding `N#Cc1cnc2ccc(=O)n(CCN[C@H]3CC[C@H]4[C@H](C3)OC(=O)N4c3ccc4c(n3)NC(=O)CO4)c2c1`, the IC50 at 24 h was > 128 µg/mL.

As to `COc1ccc2ccc(=O)n(CCN[C@H]3CC[C@H]4[C@H](C3)OC(=O)N4c3ccc4c(n3)NC(=O)CO4)c2c1`, the IC50 at 24 h was > 64 µg/mL.

The test system of the next data set is Acinetobacter baumannii. The data set is described as follows: Antibacterial activity against Acinetobacter baumannii NCTC 13420 assessed as bacterial growth inhibition by CLSI protocol based assay. The class given is functional.
Conditions: not given
Take `N#Cc1cnc2ccc(=O)n(CCN[C@H]3CC[C@H]4[C@H](C3)OC(=O)N4c3ccc4c(n3)NC(=O)CS4)c2c1`: the MIC stood at 0.12 µg/mL (≈ 0.232 µM).

As to `O=C1COc2ccc(N3C(=O)O[C@H]4C[C@@H](NCCCn5c(=O)cnc6ccc(F)cc65)CC[C@@H]43)nc2N1`, the MIC worked out at 0.12 µg/mL (≈ 0.236 µM).

On to `N#Cc1cnc2ccc(=O)n(CCN[C@H]3CC[C@H]4[C@H](C3)OC(=O)N4c3ccc4c(n3)NC(=O)CO4)c2c1`, for which the MIC is 1 µg/mL (≈ 1.99 µM).

`COc1ccc2ccc(=O)n(CCN[C@H]3CC[C@H]4[C@H](C3)OC(=O)N4c3ccc4c(n3)NC(=O)CO4)c2c1`: the MIC was 0.06 µg/mL (≈ 0.119 µM).

A further data set addresses Voltage-gated inwardly rectifying potassium channel KCNH2 (Homo sapiens, UniProt Q12809). The data set is described as follows: Inhibition of human ERG by Ionworks electrophysiology assay. Type of data set: toxicity.
Conditions: not given
As for `N#Cc1cnc2ccc(=O)n(CCN[C@H]3CC[C@H]4[C@H](C3)OC(=O)N4c3ccc4c(n3)NC(=O)CS4)c2c1`, half-maximal inhibition (IC50) required 20 µM.

Compound `O=C1COc2ccc(N3C(=O)O[C@H]4C[C@@H](NCCCn5c(=O)cnc6ccc(F)cc65)CC[C@@H]43)nc2N1` registered an IC50 of 13 µM.

Take `N#Cc1cnc2ccc(=O)n(CCN[C@H]3CC[C@H]4[C@H](C3)OC(=O)N4c3ccc4c(n3)NC(=O)CO4)c2c1`: the IC50 was > 100 µM.

Tested on in the next data set: not listed separately
The data set is described as follows: Inhibition of Escherichia coli topoisomerase 4 assessed as reduction in decatenation.
Conditions: not given
Consider `N#Cc1cnc2ccc(=O)n(CCN[C@H]3CC[C@H]4[C@H](C3)OC(=O)N4c3ccc4c(n3)NC(=O)CO4)c2c1`, for which the IC50 turned out to be 0.017 µM.

Another data set deals with Escherichia coli. The experiment in a line: Antibacterial activity against Escherichia coli W4573 assessed as bacterial growth inhibition by CLSI protocol based assay. The class given is functional.
Conditions: not given
For the compound `N#Cc1cnc2ccc(=O)n(CCN[C@H]3CC[C@H]4[C@H](C3)OC(=O)N4c3ccc4c(n3)NC(=O)CS4)c2c1`, the MIC worked out at 0.5 µg/mL (≈ 0.966 µM).

In the case of `O=C1COc2ccc(N3C(=O)O[C@H]4C[C@@H](NCCCn5c(=O)cnc6ccc(F)cc65)CC[C@@H]43)nc2N1`, the MIC worked out at 0.12 µg/mL (≈ 0.236 µM).

With `N#Cc1cnc2ccc(=O)n(CCN[C@H]3CC[C@H]4[C@H](C3)OC(=O)N4c3ccc4c(n3)NC(=O)CO4)c2c1`, the MIC is 0.25 µg/mL (≈ 0.499 µM).

As to `COc1ccc2ccc(=O)n(CCN[C@H]3CC[C@H]4[C@H](C3)OC(=O)N4c3ccc4c(n3)NC(=O)CO4)c2c1`, the MIC amounted to 0.25 µg/mL (≈ 0.495 µM).

The test system of another data set is Klebsiella pneumoniae. The data set is described as follows: Antibacterial activity against Klebsiella pneumoniae ATCC 700603 assessed as bacterial growth inhibition by CLSI protocol based assay.
Conditions: not given
The class given is functional.
For `N#Cc1cnc2ccc(=O)n(CCN[C@H]3CC[C@H]4[C@H](C3)OC(=O)N4c3ccc4c(n3)NC(=O)CS4)c2c1`, the MIC worked out at 16 µg/mL (≈ 30.9 µM).

As for `O=C1COc2ccc(N3C(=O)O[C@H]4C[C@@H](NCCCn5c(=O)cnc6ccc(F)cc65)CC[C@@H]43)nc2N1`, the MIC came to 2 µg/mL (≈ 3.93 µM).

In the case of `N#Cc1cnc2ccc(=O)n(CCN[C@H]3CC[C@H]4[C@H](C3)OC(=O)N4c3ccc4c(n3)NC(=O)CO4)c2c1`, the MIC was 8 µg/mL (≈ 16 µM).

In the case of `COc1ccc2ccc(=O)n(CCN[C@H]3CC[C@H]4[C@H](C3)OC(=O)N4c3ccc4c(n3)NC(=O)CO4)c2c1`, the minimal inhibitory concentration (MIC) was 8 µg/mL (≈ 15.8 µM).

The next data set addresses hERG (KCNH2) (Homo sapiens, UniProt Q12809). The data set is described as follows: Inhibition of human ERG at 100 uM by Ionworks electrophysiology assay. The class given is toxicity.
Conditions: not given
In general terms: In patch-clamp work, channel activity is measured electrically.
In the case of `COc1ccc2ccc(=O)n(CCN[C@H]3CC[C@H]4[C@H](C3)OC(=O)N4c3ccc4c(n3)NC(=O)CO4)c2c1`, at 100 µM the inhibition was 85%.

Tested on in the next data set: not listed separately
The experiment in a line: Plasma protein binding in mouse assessed as free fraction by equilibrium dialysis assay. The class given is ADME, cell-free.
Conditions: not given
For `N#Cc1cnc2ccc(=O)n(CCN[C@H]3CC[C@H]4[C@H](C3)OC(=O)N4c3ccc4c(n3)NC(=O)CO4)c2c1`, the fraction unbound is > 0.3.

A further data set concerns Escherichia coli. The data set is described as follows: Antibacterial activity against Escherichia coli N43 assessed as bacterial growth inhibition by CLSI protocol based assay. Type of data set: functional.
Conditions: not given
On to `N#Cc1cnc2ccc(=O)n(CCN[C@H]3CC[C@H]4[C@H](C3)OC(=O)N4c3ccc4c(n3)NC(=O)CS4)c2c1`, for which the MIC was found to be 0.004 µg/mL (≈ 0.00773 µM).

With `O=C1COc2ccc(N3C(=O)O[C@H]4C[C@@H](NCCCn5c(=O)cnc6ccc(F)cc65)CC[C@@H]43)nc2N1`, the MIC amounted to 0.25 µg/mL (≈ 0.492 µM).

Regarding `N#Cc1cnc2ccc(=O)n(CCN[C@H]3CC[C@H]4[C@H](C3)OC(=O)N4c3ccc4c(n3)NC(=O)CO4)c2c1`, the MIC came out at 0.004 µg/mL (≈ 0.00798 µM).

For `COc1ccc2ccc(=O)n(CCN[C@H]3CC[C@H]4[C@H](C3)OC(=O)N4c3ccc4c(n3)NC(=O)CO4)c2c1`, the MIC amounted to 0.03 µg/mL (≈ 0.0593 µM).

Tested on in the next data set: not listed separately
The data set is described as follows: Intrinsic clearance in mouse liver microsomes in presence of NADPH and measured upto 45 mins. The class given is ADME, Microsome. The conditions noted are these: read-out: CLH. (In general: Liver microsomes are vesicles of endoplasmic reticulum, rich in cytochrome P450 enzymes.)
In the case of `N#Cc1cnc2ccc(=O)n(CCN[C@H]3CC[C@H]4[C@H](C3)OC(=O)N4c3ccc4c(n3)NC(=O)CO4)c2c1`, the microsomal CLint stood at 55 µL/min/mg.

Tested on in the next data set: not listed separately
The data set is described as follows: Lipophilicity, logD of the compound by shake flask assay. The conditions noted are these: octanol/water. The class given is physicochemical.
`N#Cc1cnc2ccc(=O)n(CCN[C@H]3CC[C@H]4[C@H](C3)OC(=O)N4c3ccc4c(n3)NC(=O)CS4)c2c1` yielded a logD of 1.42.

For `O=C1COc2ccc(N3C(=O)O[C@H]4C[C@@H](NCCCn5c(=O)cnc6ccc(F)cc65)CC[C@@H]43)nc2N1`, the logD was found to be 1.26.

`N#Cc1cnc2ccc(=O)n(CCN[C@H]3CC[C@H]4[C@H](C3)OC(=O)N4c3ccc4c(n3)NC(=O)CO4)c2c1` registered a pH-dependent lipophilicity (logD) of 0.79.

Compound `COc1ccc2ccc(=O)n(CCN[C@H]3CC[C@H]4[C@H](C3)OC(=O)N4c3ccc4c(n3)NC(=O)CO4)c2c1` returned a logD of 2.25.

Tested on in a further data set: not listed separately
The experiment in a line: Intrinsic clearance in human liver microsomes in presence of NADPH and measured upto 45 mins. The class given is ADME, Microsome. As to conditions: read-out: CLH.
Regarding `N#Cc1cnc2ccc(=O)n(CCN[C@H]3CC[C@H]4[C@H](C3)OC(=O)N4c3ccc4c(n3)NC(=O)CO4)c2c1`, the microsomal CLint was < 3 µL/min/mg.

In another data set the target is DNA gyrase (Escherichia coli, UniProt P0AES4+P0AES6). The experiment in a line: Inhibition of Escherichia coli DNA gyrase supercoiling activity. The class given is protein-complex assay.
Conditions: not given
Compound `N#Cc1cnc2ccc(=O)n(CCN[C@H]3CC[C@H]4[C@H](C3)OC(=O)N4c3ccc4c(n3)NC(=O)CO4)c2c1` had a half-inhibitory concentration (IC50) of 0.09 µM.

In a further data set the test system is Staphylococcus aureus. The data set is described as follows: Antibacterial activity against Staphylococcus aureus ATCC 29213 assessed as bacterial growth inhibition by CLSI protocol based assay.
Conditions: not given
Type of data set: functional.
`N#Cc1cnc2ccc(=O)n(CCN[C@H]3CC[C@H]4[C@H](C3)OC(=O)N4c3ccc4c(n3)NC(=O)CS4)c2c1`: the MIC worked out at 0.03 µg/mL (≈ 0.058 µM).

`O=C1COc2ccc(N3C(=O)O[C@H]4C[C@@H](NCCCn5c(=O)cnc6ccc(F)cc65)CC[C@@H]43)nc2N1`: the MIC is 0.25 µg/mL (≈ 0.492 µM).

`N#Cc1cnc2ccc(=O)n(CCN[C@H]3CC[C@H]4[C@H](C3)OC(=O)N4c3ccc4c(n3)NC(=O)CO4)c2c1`: the MIC is 0.06 µg/mL (≈ 0.12 µM).

Turning to `COc1ccc2ccc(=O)n(CCN[C@H]3CC[C@H]4[C@H](C3)OC(=O)N4c3ccc4c(n3)NC(=O)CO4)c2c1`, the MIC came to 0.008 µg/mL (≈ 0.0158 µM).

A further data set deals with DNA topoisomerase 2-alpha (Homo sapiens, UniProt P11388). The data set is described as follows: Inhibition of human topoisomerase 2 assessed as reduction in decatenation.
Chain of DNA topoisomerase 2-alpha (P11388 whole entry): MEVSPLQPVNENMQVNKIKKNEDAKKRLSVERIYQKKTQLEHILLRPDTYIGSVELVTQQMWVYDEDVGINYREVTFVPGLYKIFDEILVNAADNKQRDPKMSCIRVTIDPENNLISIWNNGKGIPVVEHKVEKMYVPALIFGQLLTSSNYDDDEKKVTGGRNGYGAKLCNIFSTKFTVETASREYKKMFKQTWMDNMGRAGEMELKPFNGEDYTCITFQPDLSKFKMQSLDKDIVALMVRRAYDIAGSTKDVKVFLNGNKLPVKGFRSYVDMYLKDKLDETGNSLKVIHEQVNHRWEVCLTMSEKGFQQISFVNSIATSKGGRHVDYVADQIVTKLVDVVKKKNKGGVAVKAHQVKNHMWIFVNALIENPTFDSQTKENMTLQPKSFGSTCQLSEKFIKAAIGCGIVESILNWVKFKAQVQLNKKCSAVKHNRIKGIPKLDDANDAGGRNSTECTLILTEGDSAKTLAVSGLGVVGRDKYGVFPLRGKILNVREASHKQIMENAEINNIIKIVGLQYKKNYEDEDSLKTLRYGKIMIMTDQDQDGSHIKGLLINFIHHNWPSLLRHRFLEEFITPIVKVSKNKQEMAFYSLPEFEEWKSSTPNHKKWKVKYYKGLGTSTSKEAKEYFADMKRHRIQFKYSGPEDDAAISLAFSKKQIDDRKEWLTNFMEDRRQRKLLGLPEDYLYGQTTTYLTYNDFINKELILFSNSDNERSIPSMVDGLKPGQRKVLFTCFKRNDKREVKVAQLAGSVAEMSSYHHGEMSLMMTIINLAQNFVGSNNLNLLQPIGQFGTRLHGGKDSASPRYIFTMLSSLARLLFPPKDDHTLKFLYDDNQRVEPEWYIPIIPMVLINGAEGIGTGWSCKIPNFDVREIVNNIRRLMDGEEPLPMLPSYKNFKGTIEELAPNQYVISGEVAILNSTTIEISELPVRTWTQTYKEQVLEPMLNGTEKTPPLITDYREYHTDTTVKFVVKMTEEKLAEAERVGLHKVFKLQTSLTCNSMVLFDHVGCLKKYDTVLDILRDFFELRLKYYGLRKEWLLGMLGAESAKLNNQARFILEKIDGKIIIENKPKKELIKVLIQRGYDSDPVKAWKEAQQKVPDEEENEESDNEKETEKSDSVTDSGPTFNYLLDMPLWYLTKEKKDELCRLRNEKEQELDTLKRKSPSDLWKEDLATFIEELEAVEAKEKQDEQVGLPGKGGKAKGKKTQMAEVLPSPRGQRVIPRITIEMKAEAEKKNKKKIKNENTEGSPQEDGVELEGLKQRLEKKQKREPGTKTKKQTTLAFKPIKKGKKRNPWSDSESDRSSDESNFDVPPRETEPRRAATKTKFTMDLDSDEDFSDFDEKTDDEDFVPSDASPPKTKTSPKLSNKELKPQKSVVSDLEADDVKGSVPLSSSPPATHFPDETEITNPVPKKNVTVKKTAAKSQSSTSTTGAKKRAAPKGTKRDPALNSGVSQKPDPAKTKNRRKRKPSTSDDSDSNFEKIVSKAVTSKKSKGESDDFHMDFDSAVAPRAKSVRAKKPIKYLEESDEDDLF
Conditions: not given
Consider `N#Cc1cnc2ccc(=O)n(CCN[C@H]3CC[C@H]4[C@H](C3)OC(=O)N4c3ccc4c(n3)NC(=O)CO4)c2c1`, for which the IC50 is > 100 µM.
